Data: article PMC12833730, “Discovery of a First‐in‐Class Covalent Allosteric SHP1 Inhibitor with Immunotherapeutic Activity” (Angewandte Chemie (International Ed. in English), 2025)
“Also recorded” adds a separate entry of the source.

Experiments:
MC38 tumors = assay: CD8+ T cell / NK cell depletion in MC38 syngeneic model; assay type: in vivo, C57BL/6 mice
Description: To further establish whether the inhibitory effects of M029 on tumor progression could be attributable to enhanced antitumor immune responses, we treated MC38 tumors in nude mice. […] To evaluate the importance of CD8^+ T and NK cells in M029‐induced antitumor activity, we induced CD8^+ T cell or NK cell depletion in the MC38 syngeneic model using anti‐CD8 or anti‐NK1.1 antibodies as described in Figure 6c. […] These findings are consistent with the known role of SHP1 in T cells and with our in vitro data that indicate M029 enhances T cell activation with no direct effect on tumor cells. […] These findings align with previous reports that activated CD8^+ T cells recruit NK cells to tumors through releasing cytokines and chemokines like IFN‐γ.^[ [92] ^] The observed changes in immune activity induced by M029, such as increased tumor infiltration of cytotoxic CD8^+ T cells, enhanced T cell cytotoxicity and effector function, as well as improved NK cell infiltration and activation, collectively contribute to the anticancer effects exerted by M029 treatment.
Figure 6 Cytotoxic T‐cell activity is necessary for M029 antitumor activity. […] C57BL/6 mice were injected with anti‐CD8 or anti‐NK1.1 antibodies every 3–4 days for 8 days after tumor inoculation. Mice were orally dosed with M029 or control vehicle every day for 10 days after tumor inoculation at the same time (Control, n = 4; M029, n = 6; M029 + anti‐NK1.1, n = 6; M029 + anti‐CD8, n = 6). […] This difference implied that the CD8^+ T cells were critical to induce the NK cell infiltration in M029‐treated mice, and the depletion of CD8^+ T cells diminished M029's efficacy because of the absence of activated T cells and infiltrated NK cells. Statistical analyses were performed with Graphpad Prism software 10.4.2 through the student t test or the one‐way ANOVA test using Turkey post‐hoc comparison. *p < 0.05, **p < 0.01, ***p < 0.001, and ****p < 0.0001 were considered significant. Figures are plotted as average ± standard error of the mean (SEM).
Figure S6. Representative flow cytometry results of CD8^+ T/NK cell depletion studies. In the control group and the M029-treated group, CD8^+ T cells make up ~7% of immune cells and NK cells make up ~2% of immune cells. For mice treated with anti-NK1.1 antibody, the NK cell population is negligible (<0.1%). For mice treated with anti-CD8^+ antibody, the CD8^+ T cell population dropped to ~0.1%.
For immune cell profiling in the tumor microenvironment, tumor samples were first reduced to single-cell suspensions by compressing the tumors through a 70 µm filter (Falcon, #352350) into cold 1× PBS supplemented with 5 mM EDTA using the plunger of a syringe (HSW, #4010-200V0). Samples were strained through a second filter and then re-suspended in cold blocking buffer made of 5% BSA, 0.5 mM EDTA, and a 1:1000 dilution of CD16/32. Samples were then incubated with following fluorophore-conjugated antibodies. […]

SHP1 = biological target: T1, SHP1 (Homo sapiens, UniProt P29350); assay: Thermal shift assay; assay type: binding; conditions: vs DMSO control
T1 construct: SHP1, residues 245-543; made in house; host or cells: E. coli BL21(DE3)
Description: Building on the results from the SAR “by‐catalog” study, the following medicinal chemistry effort was prioritized on a systematic survey of the central phenyl scaffold, the sulfonamide linker, and the distal aryl moiety with the goal of a multiparameter optimization of potency and selectivity for SHP1 inhibition as well as drug‐like properties such as aqueous solubility and cell permeability. Additionally, given the crucial requirement for targeted covalent inhibitors to maintain tempered reactivity that enables selective target engagement and reduces cross‐reactivity to by‐standing nucleophiles in the cellular milieu,^[ [74], [75] ^] the medicinal chemistry campaign also sought to lower SHP1 covalent inhibitor reactivity with GSH and cytotoxicity. Careful assessment and evaluation of the SAR and other desirable drug‐like attributes of all synthesized molecules led to the identification of M029 (Figure 2a and Figure S2D, manuscript in preparation). […] To determine the selectivity of M029 for SHP1, we measured the IC50 value for M029‐mediated inhibition of a number of PTPs after a 60‐min preincubation. […]
The mixtures were centrifuged to remove the unfolded SHP1 proteins, and the supernatants were spiked with a control protein CDC14A, followed by loading into SDS‐PAGE gels to quantify the relative SHP1 level.

T1 sequence (P29350 245-543): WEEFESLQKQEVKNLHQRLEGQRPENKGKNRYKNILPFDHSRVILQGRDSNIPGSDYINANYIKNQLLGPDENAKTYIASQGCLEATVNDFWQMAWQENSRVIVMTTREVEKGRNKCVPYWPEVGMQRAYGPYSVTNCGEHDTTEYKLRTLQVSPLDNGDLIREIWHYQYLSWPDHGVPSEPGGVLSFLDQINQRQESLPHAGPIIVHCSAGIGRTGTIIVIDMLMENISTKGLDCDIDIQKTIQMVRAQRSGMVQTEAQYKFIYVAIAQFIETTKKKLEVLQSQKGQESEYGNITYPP

Structure (SMILES): N#Cc1ccsc1NS(=O)(=O)c1ccc(NC(=O)CCl)cc1 [M029, 2-Chloro-N-(4-(N-(3-cyanothiophen-2-yl)sulfamoyl)phenyl)acetamide]
- M029-induced NK cell tumor infiltration after CD8+ T cell depletion (MC38 tumors; M029 + anti-CD8): abolishment of the increase in NK cell tumor infiltration
- CD8+ T cell population of immune cells (MC38 tumors; flow cytometry, Figure S6): ~ 7%
- NK cell population of immune cells (MC38 tumors; flow cytometry, Figure S6): ~ 2%
- antitumor efficacy in CD8+ T-cell-depleted mice (MC38 tumors; oral M029 + anti-CD8): no antitumor efficacy; also recorded: completely abolished
- antitumor effects in NK cell-depleted mice (MC38 tumors; oral M029 + anti-NK1.1): remained unaffected; also recorded: did not impact
- decrease in SHP1 protein melting temperature (SHP1): 1.8 °C
